# Source: PubChem BioAssay AID1259335
# Test system: C. elegans L1 growth, INVAPP imaging, 5 days
# Assay: anthelmintic effect on nematode larval growth – whole organism, confirmation (AID 1259335)
row,Compound,EC50 [nM]
1,CCc1nn(C)c(C(=O)NCc2ccc(Oc3ccc(C)cc3)cc2)c1Cl,200
2,O=C(Nc1ccc(F)c(-c2nc3ncc(-c4ccccc4)cc3[nH]2)c1)N1CCCC1,3300
3,O=C(Nc1ccc2c(c1)B(O)OC2)c1ccccc1C(F)(F)F,4300
4,Nc1ccc(C(=O)Nc2ccc(-c3nc4ccccc4o3)cc2)cc1,6200
5,Cc1cc(C(=O)Nc2ccc(-c3ccccc3)cc2)no1,2500
6,COC(=O)Nc1nc2ccc(C(=O)c3ccccc3)cc2[nH]1,1100
7,COC(=O)C1=C(C)NC(C)=C(C(=O)OC(C)C)[C@H]1c1cccc2nonc12,1600
